Test systems include NCI-H23; ACHN; MDA-MB-231; NCI-H226; UACC-62; SR; SF-268; NCI/ADR-RES; NCI-H460; CAKI-1; MDA-MB-435; OVCAR-3; SN12C; SW-620; HCC 2998; LOX IMVI; Malme-3M; SK-MEL-5; MDA-N; A498.
Assay in all cases: NCI tumour cell line growth inhibition, 48 h

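Test compounds were applied to cells in 96-well plates for 48 hours at 5 doses. At the GI50, growth is halved.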 Activity calls are given as the source filed them. Rule as the data show it: active = GI50 up to about 1.1 µM and inactive = higher.

Turning to `OC1(c2ccc(Cl)cc2)c2ccccc2C2=Nc3ccccc3CN21` (stereo not given), the GI50 was > 44.9 µM (inactive) in the experiment with NCI-H23; 8.59 µM (inactive) in the experiment with ACHN; 34.6 µM (inactive) with MDA-MB-231; 37.8 µM (inactive) in the experiment with NCI-H226; > 86.9 µM (inactive) in the experiment with UACC-62; 5.93 µM (inactive) in the experiment on SR. The GI50 is 33.2 µM (inactive) in the experiment with SF-268; 25 µM (inactive) in the experiment with NCI/ADR-RES; 37.6 µM (inactive) in the experiment with NCI-H460; 58.3 µM (inactive) in the experiment on CAKI-1; 79.3 µM (inactive) with MDA-MB-435; 2.96 µM (inactive) in the experiment on OVCAR-3. Besides, the GI50 with SN12C was 22.2 µM (inactive); in the experiment with SW-620, 26.9 µM (inactive); in the experiment on HCC 2998 it was > 71.4 µM (inactive); with LOX IMVI it was 25.6 µM (inactive); in the experiment on Malme-3M, 30.5 µM (inactive); in the experiment on SK-MEL-5 it was > 46.1 µM (inactive). The GI50 in the experiment on MDA-N was > 70 µM (inactive); in the experiment with A498, 27.6 µM (inactive).
As for `O=c1c2ccccc2sc2nc(CCl)nn12`, the GI50 is 7.59 µM (inactive) in the experiment on NCI-H23; 6.31 µM (inactive) with ACHN; 8.36 µM (inactive) in the experiment on MDA-MB-231; > 100 µM (inactive) in the experiment on NCI-H226; 5.46 µM (inactive) in the experiment on UACC-62; 10.9 µM (inactive) in the experiment on SR. The GI50 in the experiment on SF-268 is 20.2 µM (inactive); with NCI/ADR-RES it was > 100 µM (inactive); with NCI-H460 it was 5.64 µM (inactive); in the experiment on CAKI-1, 7.82 µM (inactive); with MDA-MB-435, 8.28 µM (inactive); in the experiment with OVCAR-3, > 100 µM (inactive). Also, the GI50 in the experiment on SN12C is 9.08 µM (inactive); with SW-620, 12.7 µM (inactive); in the experiment on HCC 2998, 13.3 µM (inactive); with LOX IMVI, > 100 µM (inactive); in the experiment with Malme-3M, 18.5 µM (inactive); with SK-MEL-5, > 100 µM (inactive). For the same compound, the results for the GI50 in the experiment with MDA-N and in the experiment with A498 were 4.94 µM (inactive) and 2.64 µM (inactive), respectively.
`CC(C)(C)c1cc(C2COC(=O)COCC(=O)OCCOCCOCCO2)cc(C(C)(C)C)c1O` (stereo not given): the GI50 with NCI-H23 is > 77.6 µM (inactive); in the experiment with ACHN, 19.6 µM (inactive); in the experiment on MDA-MB-231 it was 44.6 µM (inactive); in the experiment on NCI-H226 it was > 100 µM (inactive); in the experiment on UACC-62, 27.2 µM (inactive); in the experiment on SR, 58.1 µM (inactive). In addition, the GI50 in the experiment with SF-268 was 18.2 µM (inactive); with NCI/ADR-RES it was > 100 µM (inactive); in the experiment with NCI-H460, 30.9 µM (inactive); in the experiment with CAKI-1, 24.7 µM (inactive); with MDA-MB-435 it was 20.5 µM (inactive); with OVCAR-3 it was > 100 µM (inactive). Besides, the GI50 is 14.4 µM (inactive) in the experiment on SN12C; > 65.8 µM (inactive) in the experiment on SW-620; 14.5 µM (inactive) with HCC 2998; 31 µM (inactive) with LOX IMVI; > 100 µM (inactive) with Malme-3M; > 100 µM (inactive) with SK-MEL-5. The GI50 is 19.6 µM (inactive) in the experiment on MDA-N and > 51.4 µM (inactive) with A498.
As for `C[N+](C)(C)CC1Cc2ccccc2C1=O` (stereo not given), the GI50 with NCI-H23 is > 10 µM (inactive); in the experiment on ACHN, > 10 µM (inactive); in the experiment on MDA-MB-231, > 10 µM (inactive); in the experiment with NCI-H226 it was > 10 µM (inactive); in the experiment with UACC-62, > 10 µM (inactive); with SR, 1.22 µM (inactive). The GI50 is > 10 µM (inactive) with SF-268; > 4.78 µM (inactive) in the experiment with NCI/ADR-RES; > 10 µM (inactive) in the experiment with NCI-H460; > 4.8 µM (inactive) with CAKI-1; > 6.87 µM (inactive) in the experiment with MDA-MB-435; > 5.81 µM (inactive) in the experiment on OVCAR-3. Besides, the GI50 in the experiment with SN12C was > 7.45 µM (inactive); in the experiment on SW-620 it was 1.87 µM (inactive); with HCC 2998, > 10 µM (inactive); with LOX IMVI it was 4.41 µM (inactive); with Malme-3M, 2.11 µM (inactive); in the experiment with SK-MEL-5, > 10 µM (inactive). In addition, the GI50 in the experiment on MDA-N is 3.72 µM (inactive); with A498 it was > 10 µM (inactive).
On to `O=C1CCCC2C3CC(CN12)C1CCCCN1C3.[O-][Cl+3]([O-])([O-])O` (stereo not given), for which the GI50 in the experiment on NCI-H23, with ACHN, in the experiment with MDA-MB-231, in the experiment with NCI-H226, with UACC-62 and with SR was > 100 µM (inactive) in each case. Also, the GI50 with SF-268, in the experiment with NCI/ADR-RES, in the experiment on NCI-H460, in the experiment on CAKI-1, in the experiment with MDA-MB-435 and in the experiment on OVCAR-3 was > 100 µM (inactive) in each case. Also, the GI50 in the experiment on SN12C, in the experiment on SW-620, in the experiment on HCC 2998, in the experiment with LOX IMVI, in the experiment on Malme-3M and in the experiment with SK-MEL-5 was > 100 µM (inactive) each time. The GI50 in the experiment on MDA-N and in the experiment with A498 was > 100 µM (inactive) each time.
`COc1cccc2c1C(=O)c1c(O)c3c(c(O)c1C2=O)C[C@@](O)(C(C)=O)C[C@@H]3OC1CC(N(C)C)C(O)C(C)O1` (stereo not given in full): the GI50 is 0.00508 µM (active) in the experiment with NCI-H23; 0.00337 µM (active) in the experiment on ACHN; 0.00132 µM (active) in the experiment with MDA-MB-231; 0.029 µM (active) in the experiment with NCI-H226; 0.00427 µM (active) in the experiment with UACC-62; 0.00135 µM (active) in the experiment on SR. Besides, the GI50 with SF-268 is 0.00436 µM (active); with NCI/ADR-RES it was 0.0575 µM (active); in the experiment with NCI-H460 it was 0.00383 µM (active); in the experiment with CAKI-1 it was 0.00904 µM (active); with MDA-MB-435 it was 0.000489 µM (active); in the experiment on OVCAR-3, 0.00649 µM (active). Moreover, the GI50 is 0.00357 µM (active) in the experiment with SN12C; 0.00348 µM (active) in the experiment with SW-620; 0.0333 µM (active) with HCC 2998; 0.00223 µM (active) with LOX IMVI; 0.0405 µM (active) with Malme-3M; 0.00236 µM (active) in the experiment with SK-MEL-5. Further, the results for the GI50 in the experiment on MDA-N and with A498 were 0.000226 µM (active) and 0.00464 µM (active), respectively.
For `c1ccc(/C(=N/Nc2nc3ccccc3s2)C2CCCCC2)nc1`, the GI50 in the experiment on NCI-H23 was 6.4 µM (inactive); in the experiment on ACHN, 6.58 µM (inactive); in the experiment on MDA-MB-231 it was 11.3 µM (inactive); in the experiment with NCI-H226, 10 µM (inactive); in the experiment with UACC-62 it was 12.8 µM (inactive); in the experiment on SR, 3.88 µM (inactive). Moreover, the GI50 in the experiment on SF-268 was 10.6 µM (inactive); in the experiment with NCI/ADR-RES, 2.58 µM (inactive); in the experiment with NCI-H460, 7.83 µM (inactive); in the experiment with CAKI-1 it was 6.95 µM (inactive); with MDA-MB-435, 14.8 µM (inactive); in the experiment on OVCAR-3, 2.92 µM (inactive). For the same compound, the GI50 was 9.44 µM (inactive) in the experiment on SN12C; 5.21 µM (inactive) in the experiment on SW-620; < 0.01 µM (active) in the experiment with HCC 2998; 13.6 µM (inactive) with LOX IMVI; 4.13 µM (inactive) in the experiment with Malme-3M; 6.24 µM (inactive) in the experiment on SK-MEL-5. Besides, the GI50 is 14.4 µM (inactive) with MDA-N and 16.6 µM (inactive) with A498.
Regarding `C[N+](C)(C)CCN(Cc1cccs1)c1ccccn1`, the GI50 is 88.1 µM (inactive) in the experiment with NCI-H23; > 100 µM (inactive) in the experiment on ACHN; > 100 µM (inactive) in the experiment with MDA-MB-231; > 100 µM (inactive) in the experiment on NCI-H226; > 100 µM (inactive) with UACC-62; > 100 µM (inactive) with SR. In addition, the GI50 in the experiment on SF-268 is 86.7 µM (inactive); in the experiment with NCI/ADR-RES it was > 100 µM (inactive); with NCI-H460, > 100 µM (inactive); with CAKI-1, > 100 µM (inactive); in the experiment with MDA-MB-435, > 100 µM (inactive); with OVCAR-3, 35.7 µM (inactive). The GI50 in the experiment on SN12C was 90.4 µM (inactive); in the experiment on SW-620, > 100 µM (inactive); in the experiment on HCC 2998, > 100 µM (inactive); with LOX IMVI it was > 100 µM (inactive); with Malme-3M, > 100 µM (inactive); in the experiment on SK-MEL-5, > 100 µM (inactive). For the same compound, the GI50 with MDA-N and in the experiment on A498 was > 100 µM (inactive) each time.
Take `O=c1[nH]c(=O)n(C2COC(CO)C2O)cc1F` (stereo not given): the GI50 in the experiment with NCI-H23 was 15.1 µM (inactive); in the experiment on ACHN it was 38.5 µM (inactive); in the experiment on MDA-MB-231, > 100 µM (inactive); in the experiment with NCI-H226, > 100 µM (inactive); in the experiment with UACC-62, 22.1 µM (inactive); with SR it was 95.3 µM (inactive). The GI50 in the experiment with SF-268 was 64.3 µM (inactive); in the experiment with NCI/ADR-RES, 72.1 µM (inactive); in the experiment with NCI-H460, 4.98 µM (inactive); with CAKI-1, > 100 µM (inactive); in the experiment with MDA-MB-435 it was 48.9 µM (inactive); with OVCAR-3, 15.5 µM (inactive). Further, the GI50 with SN12C is 28.3 µM (inactive); in the experiment with SW-620, 55.3 µM (inactive); in the experiment with HCC 2998, 8.73 µM (inactive); in the experiment on LOX IMVI it was 11 µM (inactive); in the experiment with Malme-3M, 9.29 µM (inactive); in the experiment with SK-MEL-5, 21.4 µM (inactive). Besides, the figures for the GI50 in the experiment with MDA-N and in the experiment with A498 were 25.2 µM (inactive) and 5.28 µM (inactive), respectively.
With `CCOC(=O)C(NC(=O)c1cccc(Cl)c1)(N1CCN(c2cc3c(cc2F)c(=O)c(C(=O)O)cn3CC)CC1)C(F)(F)F` (stereo not given), the GI50 in the experiment with NCI-H23 is 18 µM (inactive); in the experiment on ACHN, 15.7 µM (inactive); in the experiment on MDA-MB-231, 15.8 µM (inactive); in the experiment on NCI-H226 it was 18.2 µM (inactive); in the experiment with UACC-62, 16.4 µM (inactive); in the experiment on SR it was 17.1 µM (inactive). Besides, the GI50 is 14.1 µM (inactive) in the experiment on SF-268; 39.8 µM (inactive) with NCI/ADR-RES; 22.3 µM (inactive) in the experiment with NCI-H460; 23.7 µM (inactive) in the experiment on CAKI-1; 14.5 µM (inactive) with MDA-MB-435; 14.8 µM (inactive) with OVCAR-3. Moreover, the GI50 in the experiment on SN12C is 24.4 µM (inactive); in the experiment with SW-620, 12.9 µM (inactive); in the experiment on HCC 2998 it was 12.6 µM (inactive); in the experiment with LOX IMVI, 17.7 µM (inactive); in the experiment on Malme-3M, 18.2 µM (inactive); in the experiment on SK-MEL-5, 14.2 µM (inactive). The GI50 is 14.9 µM (inactive) in the experiment with MDA-N and 20.7 µM (inactive) with A498.

The values above are taken from ChEMBL document CHEMBL1201862, “PubChem BioAssay data set” (2004).
